In patent publication US20230032283A1, “Topical Compositions For Treating Skin Ailments” (priority 2021, published 2023):

System: skin conditions (boil, folliculitis, ingrown hair)
Experiment: Empirical studies of active ingredients in topical compositions
Assay type: in vivo, human

| Compound | relieving pain of papule-like boil or ingrown hair conditions (1% by weight in composition) | treating contemplated skin conditions (antibiotic ingredients blended into compositions) |
| --- | --- | --- |
| CCCCOc1ccc(OCCCN2CCOCC2)cc1 [Pramoxine] | effective |  |
| bacitracin zinc |  | effective |
